Results published in patent US6048893A, “Substituted phenyl compounds with a substituent having A 1,3-benzodioxole ring” (Rhone-Poulenc Rorer Limited, priority 1995, dated 2000).
pIC50: −log10 of the molar value. Non-standard residues stand in square brackets, D forms with d. Residues, ends and D or L forms follow the SMILES beside them.

Legend:
[1] = tested on: hamster bleomycin model; conditions: cited from earlier work
[2] = target: T1, A10 cell ETA receptors (Rattus norvegicus, UniProt P26684); assay: Inhibition of [125I]-ET-1 binding to A10 cell ETA receptors; conditions: [125I]-ET-1 20 pM, 2 hours at 37 C; read-out: concentration producing 50% inhibition of the binding of [125I]-ET-1 to A10 cell ETA receptors
T1 construct: endogenous in cells; host or cells: A10 cells (frozen cells, about 60,000 per well)
T1 sequence (P26684 21-426): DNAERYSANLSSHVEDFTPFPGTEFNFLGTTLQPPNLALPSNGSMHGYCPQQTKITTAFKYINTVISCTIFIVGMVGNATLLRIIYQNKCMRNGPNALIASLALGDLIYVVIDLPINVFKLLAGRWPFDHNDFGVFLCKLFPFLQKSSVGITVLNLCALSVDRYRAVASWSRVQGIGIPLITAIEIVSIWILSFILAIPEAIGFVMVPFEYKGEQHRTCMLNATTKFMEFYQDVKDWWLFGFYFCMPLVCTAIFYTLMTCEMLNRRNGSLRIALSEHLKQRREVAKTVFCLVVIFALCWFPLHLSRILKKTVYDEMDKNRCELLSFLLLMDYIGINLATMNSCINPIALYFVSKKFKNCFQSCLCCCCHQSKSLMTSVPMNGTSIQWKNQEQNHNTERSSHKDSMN
Method: A) Preparation of ETA Receptors:
A10 cells are grown to confluence in Dulbecco's modified essential medium containing 10% foetal calf serum. Two days after the final medium change cells are harvested by scraping from the base of the flask and centrifuged at 1500 rpm for 10 minutes at 4-- C in an bench centrifuge. The resulting pellets are washed in 50 mM Hepes buffer pH 7.3 containing calcium chloride (1 mM) and magnesium chloride (5 mM) and resuspended at a density of 140,000 cells/ml in the same. Cell suspensions are then frozen using a mixture of methanol and solid carbon dioxide and stored at -20-- C until required. For use in the assay cells are diluted to the required density with Hepes buffer pH 7.3.
(§1) Assays are performed using Millipore 96 well filtration plates with 0.22 μm filters in a final volume of […]. Mixtures consisting of test compound and [^125 I]-ET-1 (20 pM) in buffer pH 7.4 containing 0.1% bovine serum albumin are treated with either A10 cells or cerebellum protein. Total and non-specific binding are measured in the absence and presence of unlabeled ET-1 (100 nM). Approximately 60,000 A10 cells are used per well or 5 μg of cerebellum protein. Plates are incubated for 2 hours at 37-- C before the reaction is terminated by vacuum filtration. Plates are washed twice with assay buffer at 4-- C and the filters are punched out for gamma counting.

[3] = target: T2, rat cerebellum ETB receptors (Rattus norvegicus, UniProt P21451); assay: Inhibition of [125I]-ET-1 binding to rat cerebellum ETB receptors; conditions: [125I]-ET-1 20 pM, 2 hours at 37 C; read-out: concentration producing 50% inhibition of the binding of [125I]-ET-1 to rat cerebellum ETB receptors
T2 construct: from tissue; host or cells: rat cerebellum, particulate fraction (4000 g pellet)
T2 sequence (P21451 27-442): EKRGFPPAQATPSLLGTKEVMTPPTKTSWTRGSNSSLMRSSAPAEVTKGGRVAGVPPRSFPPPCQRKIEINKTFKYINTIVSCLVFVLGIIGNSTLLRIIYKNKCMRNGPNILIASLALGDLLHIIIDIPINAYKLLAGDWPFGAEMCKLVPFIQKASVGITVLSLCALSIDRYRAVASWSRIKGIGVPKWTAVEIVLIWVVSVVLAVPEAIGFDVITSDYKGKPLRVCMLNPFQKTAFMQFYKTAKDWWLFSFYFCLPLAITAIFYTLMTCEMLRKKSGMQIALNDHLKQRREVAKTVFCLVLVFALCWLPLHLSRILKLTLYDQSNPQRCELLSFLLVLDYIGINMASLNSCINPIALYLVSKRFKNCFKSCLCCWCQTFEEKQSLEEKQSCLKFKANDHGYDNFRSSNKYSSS
Method: B) Preparation of ETB Receptors:
Rats are killed by cervical dislocation and the cerebellum tissue is removed into ice cold Tris buffer pH 7.4 containing sucrose (0.25M), ethylenediaminetetracetic acid (3 mM), and a cocktail of protease inhibitors. After homogenizing using a glass/teflon manual homogenizer, the samples are centrifuged at 4-- C for 17 minutes at 1000 g, and the resulting supernatants are retained. This material is centrifuged at 4000 g for 35 minutes at 4-- C and the pellets are resuspended in 50 mM Tris buffer pH 7.4, and the protein concentration is measured. Aliquots of […] are frozen in a mixture of methanol and solid carbon dioxide and stored at -20-- C until required. For use in the assay samples are diluted to the required concentration with Tris buffer pH 7.4 containing 0.1% bovine serum albumin.
as §1, with “Plates are washed twice with assay buffer at 4-- C and the filters are punched out for gamma counting.” left out

CC(C)C[C@@H]1NC(=O)[C@@H](C(C)C)NC(=O)[C@@H]2CCCN2C(=O)[C@@H](CC(=O)O)NC(=O)[C@@H](Cc2c[nH]c3ccccc23)NC1=O [BQ123] (cyclo(L[dW][dD]P[dV]))
anti-fibrotic effect [1]: anti-fibrotic effects

Cc1ccccc1[C@H](Oc1cc(OCc2ccc3c(c2)OCO3)ccc1C#N)C(=O)O
pIC50 [2]: 8.22 | pIC50 [3]: 4.46
